The NIST ThermoML archive (doi:10.1016/j.fluid.2016.06.054)

Experiment: molar heat capacity at constant pressure
Conditions: Liquid, Flow calorimetry

CC(=O)[O-].CCn1cc[n+](C)c1 [1-ethyl-3-methylimidazolium acetate]
Conditions	molar heat capacity at constant pressure [J/K/mol]
303.15 K, 100 kPa	325.25
303.17 K, 4020 kPa	324.22
303.21 K, 8050 kPa	322.31
303.25 K, 12080 kPa	321.03
303.27 K, 16030 kPa	319.45
313.25 K, 100 kPa	329.51
313.37 K, 4110 kPa	327.89
313.42 K, 8060 kPa	327.03
313.45 K, 12060 kPa	326.25
313.49 K, 16090 kPa	325.87
323.16 K, 100 kPa	332.22
323.22 K, 4040 kPa	330.61
323.28 K, 8020 kPa	329.03
323.31 K, 12070 kPa	327.19
323.34 K, 16130 kPa	326.51
333.42 K, 100 kPa	337.87
333.48 K, 4080 kPa	336.14
333.52 K, 8030 kPa	334.67
333.59 K, 12010 kPa	333.16
333.61 K, 16090 kPa	331.41
343.76 K, 100 kPa	341.44
343.82 K, 4020 kPa	340.21
343.85 K, 8030 kPa	338.53
343.92 K, 12050 kPa	337.42
343.98 K, 16050 kPa	336.01
354.29 K, 100 kPa	345.18
354.33 K, 4060 kPa	343.89
354.38 K, 8020 kPa	342.02
354.46 K, 12080 kPa	340.87
354.52 K, 16090 kPa	339.03
363.65 K, 100 kPa	348.36
363.67 K, 4050 kPa	346.97
363.72 K, 8060 kPa	345.19
363.78 K, 12070 kPa	344.06
363.82 K, 16030 kPa	342.91
374.02 K, 100 kPa	353.57
374.09 K, 4070 kPa	352.06
374.11 K, 8010 kPa	350.13
374.15 K, 12150 kPa	348.47
374.18 K, 16110 kPa	347.01
383.41 K, 100 kPa	357.23
383.46 K, 4080 kPa	355.56
383.51 K, 8040 kPa	354.44
383.53 K, 12090 kPa	353.71
383.55 K, 16050 kPa	352.62
393.22 K, 100 kPa	362.22
393.26 K, 4030 kPa	361.14
393.31 K, 8070 kPa	359.92
393.33 K, 12140 kPa	358.14
393.35 K, 16090 kPa	356.53

CC(=O)[O-].CCCCCCn1cc[n+](C)c1 [3-hexyl-1-methylimidazolium acetate]
Conditions	molar heat capacity at constant pressure [J/K/mol]
308.3 K, 100 kPa	446.98
308.6 K, 3940 kPa	445.51
308.7 K, 7930 kPa	444.39
308.7 K, 11720 kPa	442.98
308.8 K, 16020 kPa	442.23
317.5 K, 100 kPa	451.85
317.5 K, 4020 kPa	450.18
317.6 K, 8080 kPa	449.27
317.8 K, 12320 kPa	448.43
317.9 K, 16210 kPa	447.35
327.4 K, 100 kPa	455.72
327.5 K, 4030 kPa	454.06
327.7 K, 8190 kPa	452.63
327.8 K, 12480 kPa	451.08
327.8 K, 16220 kPa	450.18
337.2 K, 100 kPa	460.35
337.3 K, 4120 kPa	458.97
337.7 K, 8030 kPa	457.41
337.8 K, 12180 kPa	456.32
338 K, 16110 kPa	454.87
345.9 K, 100 kPa	466.57
346.2 K, 4120 kPa	465.32
346.3 K, 8170 kPa	463.82
346.5 K, 12410 kPa	462.14
346.8 K, 16130 kPa	460.75
355.3 K, 100 kPa	472.17
355.6 K, 4120 kPa	470.85
355.7 K, 8010 kPa	469.29
355.9 K, 12430 kPa	468.34
356.1 K, 16130 kPa	466.81
365 K, 7990 kPa	476.86
365.1 K, 12180 kPa	475.05
365.4 K, 16100 kPa	473.57
365.7 K, 100 kPa	479.8
365.8 K, 4110 kPa	478.25
374 K, 100 kPa	485.51
374.2 K, 4020 kPa	483.86
374.4 K, 8100 kPa	482.22
374.7 K, 12380 kPa	480.71
375 K, 16130 kPa	479.24
383.9 K, 100 kPa	491.39
384.1 K, 4100 kPa	490.53
384.3 K, 7960 kPa	489.08
384.4 K, 12530 kPa	487.97
384.5 K, 16010 kPa	486.3
394.9 K, 100 kPa	496.24
395.1 K, 4070 kPa	494.51
395.1 K, 8360 kPa	493.11
395.2 K, 12770 kPa	491.91
395.4 K, 16400 kPa	490.48
